Data as given in patent publication US10183035B2, “Etoposide and prodrugs thereof for use in targeting cancer stem cells” (CELLACT PHARMA GMBH, priority 2013, dated 2019).

Legend:
[1] = tested on: cells; experiment: apoptosis induction / cell cycle measurements in cells; type: cell-based
[2] = target: MDR-1 gene product P-glycoprotein (Homo sapiens, UniProt P08183); experiment: P-glycoprotein-mediated substrate efflux; type: cell-based
MDR-1 gene product P-glycoprotein, sequence (P08183 whole entry): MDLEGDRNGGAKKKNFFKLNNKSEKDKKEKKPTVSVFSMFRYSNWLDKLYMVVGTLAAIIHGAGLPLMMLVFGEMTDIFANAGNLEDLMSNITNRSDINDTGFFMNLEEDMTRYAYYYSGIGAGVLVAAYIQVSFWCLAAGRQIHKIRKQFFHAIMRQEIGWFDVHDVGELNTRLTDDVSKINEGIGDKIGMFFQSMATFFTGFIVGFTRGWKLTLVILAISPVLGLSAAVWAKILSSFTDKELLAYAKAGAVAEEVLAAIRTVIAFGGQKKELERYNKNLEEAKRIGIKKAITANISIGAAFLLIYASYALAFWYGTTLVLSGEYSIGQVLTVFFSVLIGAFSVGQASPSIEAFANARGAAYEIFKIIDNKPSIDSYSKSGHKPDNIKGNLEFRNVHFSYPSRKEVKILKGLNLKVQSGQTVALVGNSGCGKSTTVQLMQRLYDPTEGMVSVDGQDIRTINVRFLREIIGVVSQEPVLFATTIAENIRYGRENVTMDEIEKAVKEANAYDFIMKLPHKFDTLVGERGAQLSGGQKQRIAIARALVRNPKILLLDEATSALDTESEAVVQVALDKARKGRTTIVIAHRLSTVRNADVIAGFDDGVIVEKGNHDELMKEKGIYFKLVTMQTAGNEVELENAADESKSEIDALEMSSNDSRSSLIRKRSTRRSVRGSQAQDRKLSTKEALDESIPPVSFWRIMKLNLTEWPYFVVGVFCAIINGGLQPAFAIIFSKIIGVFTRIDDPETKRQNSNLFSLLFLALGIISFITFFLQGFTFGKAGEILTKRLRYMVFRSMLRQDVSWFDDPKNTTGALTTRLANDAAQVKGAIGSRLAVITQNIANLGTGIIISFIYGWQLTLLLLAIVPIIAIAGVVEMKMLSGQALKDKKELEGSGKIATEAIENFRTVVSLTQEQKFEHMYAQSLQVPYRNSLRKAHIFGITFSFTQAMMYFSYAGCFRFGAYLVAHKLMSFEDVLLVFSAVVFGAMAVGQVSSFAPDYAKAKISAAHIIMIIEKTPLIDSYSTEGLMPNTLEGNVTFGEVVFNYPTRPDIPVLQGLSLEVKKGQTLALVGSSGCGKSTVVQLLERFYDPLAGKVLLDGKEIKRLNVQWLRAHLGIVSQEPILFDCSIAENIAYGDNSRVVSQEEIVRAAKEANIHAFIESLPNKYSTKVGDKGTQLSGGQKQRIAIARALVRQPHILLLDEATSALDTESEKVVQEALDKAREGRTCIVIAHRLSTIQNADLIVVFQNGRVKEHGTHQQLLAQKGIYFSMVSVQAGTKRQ

effect on P-glycoprotein [2]: ineffective | retention in cells / efflux [2]: pumped out of the cells
Compound: COc1cc([C@@H]2c3cc4c(cc3[C@@H](O[C@@H]3O[C@@H]5CO[C@@H](C)O[C@H]5[C@H](O)[C@H]3O)[C@H]3COC(=O)[C@H]23)OCO4)cc(OC)c1O [etoposide]
apoptosis is complete after [1]: 48 h
